Reference: ChEMBL document CHEMBL3885861, “Open TG-GATES”

Species: Rattus norvegicus
Assay: Open TG-GATES - Regimen: Single
Type: toxicity, organism-based, Sprague-Dawley
Parameters: regimen Single, gender Male, age 6 weeks
Settings: in vivo, po, 1 mg/kg, route gavage, dose level Low; for KIDNEY_L / KIDNEY_R / KIDNEY_TOTAL: tissue Kidney; for LIVER: tissue Liver

COc1ccc2c(c1)c(CC(=O)O)c(C)n2C(=O)c1ccc(Cl)cc1 [INDOMETHACIN]
MCV (6 h, tissue Blood): 66 fL | Mono (6 h, tissue Blood): 9% | Neu (6 h, tissue Blood): 11.6% | PT (6 h, tissue Blood): 12.5 s | Plat (6 h, tissue Blood): 104.4 x10_4/uL | RBC (6 h, tissue Blood): 623.2 x10_4/ul | Ret (6 h, tissue Blood): 9.4% | WBC (6 h, tissue Blood): 102.9 x10_2/uL | KIDNEY_L (6 h): 1 g | KIDNEY_R (6 h): 0.9 g | KIDNEY_TOTAL (6 h): 1.9 g | LIVER (6 h): 8.8 g | A/G (6 h, tissue Plasma): 1.7 | ALP (6 h, tissue Plasma): 1218.4 IU/L | ALT (6 h, tissue Plasma): 35.8 IU/L | AST (6 h, tissue Plasma): 70.6 IU/L | BUN (6 h, tissue Plasma): 11 mg/dL | CRE (6 h, tissue Plasma): 0.5 mg/dL | Ca (6 h, tissue Plasma): 10.2 mg/dL | Cl (6 h, tissue Plasma): 105.6 meq/L | DBIL (6 h, tissue Plasma): 0.02 mg/dL | GLC (6 h, tissue Plasma): 191.4 mg/dL | IP (6 h, tissue Plasma): 9.4 mg/dL | K (6 h, tissue Plasma): 5.1 meq/L | LDH (6 h, tissue Plasma): 83.6 IU/L | Na (6 h, tissue Plasma): 136.8 meq/L | PL (6 h, tissue Plasma): 126.4 mg/dL | RALB (6 h, tissue Plasma): 3.8 g/dL | TBIL (6 h, tissue Plasma): 0.3 mg/dL | TC (6 h, tissue Plasma): 75.8 mg/dL | TG (6 h, tissue Plasma): 53.2 mg/dL | TP (6 h, tissue Plasma): 6 g/dL | gamma-GTP (6 h, tissue Plasma): 1.4 IU/L | TERMINAL_BW (9 h): 198.6 g | APTT (9 h, tissue Blood): 16.5 s | Bas (9 h, tissue Blood): 0% | Eos (9 h, tissue Blood): 0.8% | Fbg (9 h, tissue Blood): 213 mg/dL | Hb (9 h, tissue Blood): 13.1 g/dL | Ht (9 h, tissue Blood): 39.4% | Lym (9 h, tissue Blood): 83.6% | MCH (9 h, tissue Blood): 21.8 pg | MCHC (9 h, tissue Blood): 33.3% | MCV (9 h, tissue Blood): 65.5 fL | Mono (9 h, tissue Blood): 6.6% | Neu (9 h, tissue Blood): 9.2% | PT (9 h, tissue Blood): 12.6 s | Plat (9 h, tissue Blood): 102.1 x10_4/uL | RBC (9 h, tissue Blood): 602 x10_4/ul | Ret (9 h, tissue Blood): 10.2% | WBC (9 h, tissue Blood): 141 x10_2/uL | KIDNEY_L (9 h): 0.9 g | KIDNEY_R (9 h): 1 g | KIDNEY_TOTAL (9 h): 1.9 g | LIVER (9 h): 8 g | A/G (9 h, tissue Plasma): 2.6 | ALP (9 h, tissue Plasma): 915 IU/L | ALT (9 h, tissue Plasma): 35.6 IU/L | AST (9 h, tissue Plasma): 68.2 IU/L | BUN (9 h, tissue Plasma): 10.6 mg/dL | CRE (9 h, tissue Plasma): 0.5 mg/dL | Ca (9 h, tissue Plasma): 10 mg/dL | Cl (9 h, tissue Plasma): 106.8 meq/L | DBIL (9 h, tissue Plasma): 0.072 mg/dL | GLC (9 h, tissue Plasma): 187.4 mg/dL | IP (9 h, tissue Plasma): 10 mg/dL | K (9 h, tissue Plasma): 5.1 meq/L | LDH (9 h, tissue Plasma): 92.8 IU/L | Na (9 h, tissue Plasma): 137.4 meq/L | PL (9 h, tissue Plasma): 141.6 mg/dL | RALB (9 h, tissue Plasma): 3.8 g/dL | TBIL (9 h, tissue Plasma): 0.5 mg/dL | TC (9 h, tissue Plasma): 85.8 mg/dL | TG (9 h, tissue Plasma): 45.2 mg/dL
